Test results from PubChem BioAssay AID1918936 (Molecular Pharmacology Branch, DTP, NCI, 2023).

Test system: 349418-098-R-PDC complex spheroid viability
Test: Anticancer human tumor 349418-098-R-PDC patient-derived lung adenocarcinoma cell line growth inhibition
Conditions: for IC50: curve of first compound; for viability, T/C: stronger effect = lower value
Method in brief: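 Drug combinations with the LSD1 inhibitor iadademstat tested on tumor cells co-cultured as spheroids with endothelial cells and mesenchymal stem cells. Concentrations descended in half-log increments from clinical Cmax or 10 microM.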
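Note: spheroids exposed to agents for seven days before readout.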
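Throughout, for viability, T/C: 100% = DMSO vehicle control wells.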

O=C(c1cc(Cc2n[nH]c(=O)c3ccccc23)ccc1F)N1CCN(C(=O)C2CC2)CC1 + NC1CC1c1ccc(-c2cccc(O)c2)cc1
IC50 (second compound 0.1 µM): 8.91 µM | IC50 (second compound 0.316 µM): 8.22 µM | IC50 (second compound 1 µM): 8.04 µM | IC50 (second compound 3.16 µM): > 10 µM | IC50 (second compound 10 µM): 3.19 µM | viability, T/C (second compound 0.1 µM, first compound 0.0316 µM): 106% | viability, T/C (second compound 0.1 µM, first compound 0.1 µM): 108% | viability, T/C (second compound 0.1 µM, first compound 0.316 µM): 99.3% | viability, T/C (second compound 0.1 µM, first compound 1 µM): 99.3% | viability, T/C (second compound 0.1 µM, first compound 3.16 µM): 86% | viability, T/C (second compound 0.1 µM, first compound 10 µM): 45.5% | viability, T/C (second compound 0.316 µM, first compound 0.0316 µM): 111% | viability, T/C (second compound 0.316 µM, first compound 0.1 µM): 105% | viability, T/C (second compound 0.316 µM, first compound 0.316 µM): 103% | viability, T/C (second compound 0.316 µM, first compound 1 µM): 98.5% | viability, T/C (second compound 0.316 µM, first compound 3.16 µM): 77.6% | viability, T/C (second compound 0.316 µM, first compound 10 µM): 43.9% | viability, T/C (second compound 1 µM, first compound 0.0316 µM): 116% | viability, T/C (second compound 1 µM, first compound 0.1 µM): 106% | viability, T/C (second compound 1 µM, first compound 0.316 µM): 105% | viability, T/C (second compound 1 µM, first compound 1 µM): 104% | viability, T/C (second compound 1 µM, first compound 3.16 µM): 69.1% | viability, T/C (second compound 1 µM, first compound 10 µM): 45.5% | viability, T/C (second compound 3.16 µM, first compound 0.0316 µM): 116% | viability, T/C (second compound 3.16 µM, first compound 0.1 µM): 111% | viability, T/C (second compound 3.16 µM, first compound 0.316 µM): 101% | viability, T/C (second compound 3.16 µM, first compound 1 µM): 105% | viability, T/C (second compound 3.16 µM, first compound 3.16 µM): 75.5% | viability, T/C (second compound 3.16 µM, first compound 10 µM): 52.3% | viability, T/C (second compound 10 µM, first compound 0.0316 µM): 97.1% | viability, T/C (second compound 10 µM, first compound 0.1 µM): 90.3% | viability, T/C (second compound 10 µM, first compound 0.316 µM): 75.2% | viability, T/C (second compound 10 µM, first compound 1 µM): 67% | viability, T/C (second compound 10 µM, first compound 3.16 µM): 49.9% | viability, T/C (second compound 10 µM, first compound 10 µM): 33.6%
